Assay results published in patent US20240083857A1, “2-Methyl-Quinazolines” (Bayer Pharma Aktiengesellschaft, priority 2017, published 2024).

Experiments:
[1] = target: human SOS1 (nucleotide exchange of K-Ras^G12C) (Homo sapiens, UniProt Q07889); assay: Biochemical assay 2: K-Ras^G12C activation assay by hSOS1 at high GTP concentration (HTRF); conditions: high GTP; for IC50: read-out: Assay 2 (KRAS-Activation by SOS high GTP) activity expressed as IC50
[2] = target: human SOS1 (loading of human K-Ras^G12C-GDP with fluorescent GTP-analog) (Homo sapiens, UniProt Q07889); assay: Biochemical assay 3: K-Ras^G12C activation assay by hSOS1 (HTRF); conditions: no GTP; for IC50: read-out: Assay 3 (KRAS-Activation by SOS no GTP) activity expressed as IC50; for inhibition at 20 µM: read-out: Assay 3 (KRAS-Activation by SOS no GTP) activity expressed as % inhibition at 20 μM
[3] = target: K-Ras^G12C : hSOS1 interaction (Homo sapiens, UniProt Q07889); assay: Biochemical assay 1: K-Ras^G12C interaction assay with hSOS1 (HTRF); format: binding; conditions: read-out: Assay 1 (KRAS-SOS Interaction) activity expressed as IC50

| SMILES | IC50 [1] | IC50 [2] | IC50 [3] | inhibition at 20 µM [2] | inhibition at 20 µM ([1]; read-out: Assay 2 (KRAS-Activation by SOS high GTP) activity expressed as % inhibition at 20 μM, at 20 μM) |
| --- | --- | --- | --- | --- | --- |
| COc1cc(F)cc(-c2cccc([C@@H](C)Nc3nc(C)nc4cc(OC)c(OC)cc34)c2)c1 [Example 65, N-[(1R)-1-(3′-fluoro-5′-methoxybiphenyl-3-yl)ethyl]-6,7-dimethoxy-2-methylquinazolin-4-amine] | 8340 nM | 13500 nM | 5760 nM |  |  |
| COc1ccc2oc(-c3cccc([C@@H](C)Nc4nc(C)nc5cc(OC)c(OC)cc45)c3)cc2c1 [Example 66, 6,7-dimethoxy-N-{(1R)-1-[3-(5-methoxy-1-benzofuran-2-yl)phenyl]ethyl}-2-methylquinazolin-4-amine] | 4550 nM | 6600 nM | 3460 nM |  |  |
| CCCCOc1cccc(F)c1-c1cccc([C@@H](C)Nc2nc(C)nc3cc(OC)c(OC)cc23)c1 [Example 67, N-[(1R)-1-(2′-butoxy-6′-fluorobiphenyl-3-yl)ethyl]-6,7-dimethoxy-2-methylquinazolin-4-amine] | 19600 nM |  | 9980 nM | 54% |  |
| COc1cc2nc(C)nc(N[C@H](C)c3cccc(-c4ccc(C(C)(C)C#N)cc4)c3)c2cc1OC [Example 69, 2-(3′-{(1R)-1-[(6,7-dimethoxy-2-methylquinazolin-4-yl)amino]ethyl}biphenyl-4-yl)-2-methylpropanenitrile] | 5410 nM | 9070 nM | 3920 nM |  |  |
| COc1cc2nc(C)nc(N[C@H](C)c3cccc(-c4cccc(CNS(C)(=O)=O)c4)c3)c2cc1OC [Example 71, N-[(3′-{(1R)-1-[(6,7-dimethoxy-2-methylquinazolin-4-yl)amino]ethyl}biphenyl-3-yl)methyl]methanesulfonamide] | 643 nM | 680 nM | 393 nM |  |  |
| COc1cc2nc(C)nc(N[C@H](C)c3cccc(-c4ccc(CNS(C)(=O)=O)cc4)c3)c2cc1OC [Example 72, N-[(3′-{(1R)-1-[(6,7-dimethoxy-2-methylquinazolin-4-yl)amino]ethyl}biphenyl-4-yl)methyl]methanesulfonamide] | 666 nM | 882 nM | 737 nM |  |  |
| CCCNC(=O)c1ccc(-c2cccc([C@@H](C)Nc3nc(C)nc4cc(OC)c(OC)cc34)c2)cc1 [Example 73, 3′-{(1R)-1-[(6,7-dimethoxy-2-methylquinazolin-4-yl)amino]ethyl}-N-propylbiphenyl-4-carboxamide] | 554 nM | 495 nM | 427 nM |  |  |
| COc1cc2nc(C)nc(N[C@H](C)c3cccc(-c4ccc(C(=O)NCCN(C)C)cc4)c3)c2cc1OC [Example 74, 3′-{(1R)-1-[(6,7-dimethoxy-2-methylquinazolin-4-yl)amino]ethyl}-N-[2-(dimethylamino)ethyl]biphenyl-4-carboxamide] | 223 nM | 261 nM | 149 nM |  |  |
| COc1cc2nc(C)nc(N[C@H](C)c3cccc(-c4ccn[nH]4)c3)c2cc1OC [Example 75, 6,7-dimethoxy-2-methyl-N-{(1R)-1-[3-(1H-pyrazol-3-yl)phenyl]ethyl}quinazolin-4-amine] | 1150 nM | 1010 nM | 588 nM |  |  |
| C/C=C(\C)c1cccc([C@@H](C)Nc2nc(C)nc3cc(OC)c(OC)cc23)c1 [Example 76, N-[(1R)-1-{3-[(2E)-but-2-en-2-yl]phenyl}ethyl]-6,7-dimethoxy-2-methylquinazolin-4-amine] | 1190 nM | 952 nM | 471 nM |  |  |
| CCCOc1ccc(Cl)cc1-c1cccc([C@@H](C)Nc2nc(C)nc3cc(OC)c(OC)cc23)c1 [Example 77, N-[(1R)-1-(5′-chloro-2′-propoxybiphenyl-3-yl)ethyl]-6,7-dimethoxy-2-methylquinazolin-4-amine] | 9630 nM | 19900 nM | 7860 nM |  |  |
| COc1cc2nc(C)nc(N[C@H](C)c3cccc(/C=C/Cc4ccccc4)c3)c2cc1OC [Example 78, 6,7-dimethoxy-2-methyl-N-[(1R)-1-{3-[(1E)-3-phenylprop-1-en-1-yl]phenyl}ethyl]quinazolin-4-amine] |  |  | 8550 nM | 31% | 45% |
